The text below walks through data of patent publication US20250375526A1, “IRAK DEGRADERS AND USES THEREOF” (Kymera Therapeutics, Inc., priority 2020, published 2025).

Broadly, the IC50 is the concentration that gives 50% inhibition. The DC50 is the concentration at which degradation of the target reaches its halfway point.

In one assay the test system is OCI-LY10 cells. In words: CellTiter-Glo Luminescent Cell Viability Assay. In kind it is cell-based. Particulars: Homo sapiens, 96 h, incubated 4 days, read-out: OCI-LY10 CTG IC50. The procedure:
Compound-mediated viability effect on OCI-LY10 was quantitatively determined using the CellTiter-Glo® Luminescent Cell Viability Assay kit from Promega (Catalog number G7570) following manufacturer's recommended procedures. Briefly, OCI-LY10 cells were seeded into 384 well plates (Grenier Bio-One, Catalog number 781080) with a density of 10,000 cells per well. Compounds were then added to the assay plate with final top concentration of 10 μM and 1:3 dilution series with total of 9 doses. The final DMSO concentration was normalized to 0.2%. The assay plates were incubated at 37° C. for 4 days under 5% CO2. Then the assay plate was equilibrated at room temperature for 10 minutes. To determine cell viability, 30 μL CellTiter Glo reagent was added to each well and the assay plate was centrifuged at 1000 rpm for 30 second, incubated at room temperature for 10 min, and analyzed by detecting the luminescence using a multimode plate reader (EnVision 2105, PerkinElmer). The data was then analyzed by software Prism 7.0 from GraphPad and the dose response curves were fit using a three-parameter logistic equation to calculate IC50.
The letter codes for OCI-LY10 CTG IC50 include: A (<1 μM), B (1-10 μM), C (>10 μM).

The next assay addresses T1, IRAK4 (Homo sapiens, UniProt Q9NWZ3).
T1 construct: endogenous in cells; host or cells: OCI-Ly10
T1 sequence (Q9NWZ3 1-460): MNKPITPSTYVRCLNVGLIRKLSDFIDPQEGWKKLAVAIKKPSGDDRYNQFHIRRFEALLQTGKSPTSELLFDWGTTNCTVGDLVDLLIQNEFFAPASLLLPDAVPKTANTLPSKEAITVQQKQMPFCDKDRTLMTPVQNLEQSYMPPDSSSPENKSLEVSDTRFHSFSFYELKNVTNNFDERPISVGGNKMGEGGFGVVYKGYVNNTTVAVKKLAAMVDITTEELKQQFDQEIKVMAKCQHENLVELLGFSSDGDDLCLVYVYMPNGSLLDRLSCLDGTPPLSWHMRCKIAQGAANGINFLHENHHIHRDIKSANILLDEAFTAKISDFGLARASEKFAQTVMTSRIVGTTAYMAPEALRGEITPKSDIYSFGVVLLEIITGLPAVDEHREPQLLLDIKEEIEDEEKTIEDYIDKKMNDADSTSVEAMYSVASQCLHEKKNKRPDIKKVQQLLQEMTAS
Description: OCI-LY10 IRAK MSD assay DC50 (IRAK4 degradation). In kind it is cell-based. Particulars: OCI-Ly10 cells, incubated for 4 hr, concentration of compound required to degrade 50% of protein. The procedure: A MSD assay is run to determine the concentration of compound required to degrade 50% of protein (DC50).
• Compounds were reconstituted to 10 mM in stock solutions. The stock solutions were diluted to 5 mM and 45 μL of each dilution was transferred to a 384 pp-plate. A 3 fold, 8-point serial dilution was performed by transferring 15 μL of compound into 30 μL DMSO using Janus. • 20 nL of each compound were added into each well of a 96-well plate (Corning3799). • OCI-Ly10 cells were seeded into the 96-well plate at 3.0*10e^5 cells/100 μL/well. • The cell plate was shaken at 720 rpm for 5 min and incubated for 4 hr. • 100 μL of cells were transferred into the 96-PCR plate and spun down at high speed for 5 mins. • The supernatant was discarded and 100 μL of RIPA lysis buffer with proteinase inhibitors was added per well. The plate was then sealed and shaken at 600 rpm and 4° C. for about 20 min. • The plate was then spun down at high speed (about 3200 g) for 30 min and then frozen in a −80° C. fridge. • A bare MSD plate (L15XA-3) was coated with 2 μg/mL of capture antibody (mouse Anti-IRAK4 antibody [2H9], ab119942) in PBS to 40 μL/well and incubated overnight at 4° C.
• The MSD coated plate was washed 3× (150 μL/well) with 1×TBST (CST #9997S). • The MSD plate was then blocked with 150 μL of blocking buffer [3% Blocker A (MSD, R93BA-4) in TBST]/well and shaken for 1 hr at RT and 600 rpm. • The MSD plate was washed 3× (150 μL/well) with 1×TBST. The sample RIPA lysates were then added to the MSD plate (50 μL/well) and shaken for 1 hr at RT and 600 rpm. • The MSD plate was washed 3× (150 μL/well) with 1×TBST and the primary detection antibody (Rabbit Anti-IRAK4 antibody [Y279], ab32511) was added to a final concentration of 1 μg/ml with 25 μL/well. The plate was then shaken for 1 hr at RT and 600 rpm. • The MSD plate was washed 3× (150 μL/well) with 1×TBST and the secondary detection antibody, SULFO-TAG anti-species antibody (Anti Rabbit Antibody (R32AB-5) MSD, R32AB-1) was added to a volume of 25 μL/well at a final concentration of 1 μg/ml. The plate was then shaken for 1 hr at RT and 600 rpm. • The MSD plate was then washed 3× (150 μL/well) with 1×TBST. • 1×MSD reading buffer was then added (150 μL/well) and the plate […].
(MSD, R92TC-2) • The MSD instrument was then read.
The remaining activity was calculated following the formula below:
• The DC50 was calculated by fitting the Curve using Xlfit (v5.3.1.3), equation 201: […]
The letter codes for IRAK4 DC50 indicate the concentration of compound required to degrade 50% of protein: A (<0.01 μM), B (0.01-0.1 μM), C (>0.1-0.2 μM), D (>0.2 μM).

Some results are limits rather than exact numbers.

In the case of `O=C1CCN(c2cncc3c(C#CCOC4CCN(C[C@H]5CC[C@H](n6cc(NC(=O)c7cnn8ccc(N9C[C@H]%10C[C@@H]9CO%10)nc78)c(C(F)F)n6)CC5)CC4)cccc23)C(=O)N1` [I-9], the half-inhibitory concentration (IC50) with OCI-LY10 cells lay within 1000 to 10000 nM. At IRAK4, this compound had a DC50 of less than 10 nM.

As for `O=C1CCN(c2cnc3cc(C#CCOC4CCN(C[C@H]5CC[C@H](n6cc(NC(=O)c7cnn8ccc(N9C[C@H]%10C[C@@H]9CO%10)nc78)c(C(F)F)n6)CC5)CC4)ccn23)C(=O)N1` [I-3], the IC50 in the assay with OCI-LY10 cells fell in the range of 1000 to 10000 nM. This compound also displayed a DC50 at IRAK4 of less than 10 nM.

On to `COc1cc2nn([C@H]3CC[C@H](CN(C)C4CCN(c5cccn6c(N7CCC(=O)NC7=O)cnc56)CC4)CC3)cc2cc1NC(=O)c1cccc(C(F)(F)F)n1` [I-25], for which the IC50 with OCI-LY10 cells was less than 1000 nM. This compound registered a half-maximal degradation concentration (DC50) at IRAK4 of less than 10 nM.

For the compound `O=C1CCN(c2cnc3cc(C4CCN(C[C@H]5CC[C@H](n6cc7cc(NC(=O)c8cccc(C(F)(F)F)n8)ccc7n6)CC5)CC4)ccn23)C(=O)N1` [I-32], in the assay on OCI-LY10 cells, the IC50 is less than 1000 nM. The half-maximal degradation concentration (DC50) on IRAK4 is greater than 200 nM.

Turning to `CN(C[C@H]1CC[C@H](n2cc3cc(NC(=O)c4cccc(C(F)(F)F)n4)c(C(C)(C)O)cc3n2)CC1)C1CCN(c2cccc3c(N4CCC(=O)NC4=O)cncc23)CC1` [I-7], the IC50 in the assay with OCI-LY10 cells was greater than 10000 nM.

For the compound `CC(C)(O)c1cc2nn([C@H]3CC[C@H](CN4CCC(c5cccn6c(N7CCC(=O)NC7=O)cnc56)CC4)CC3)cc2cc1NC(=O)c1cccc(C(F)(F)F)n1` [I-23], the 50% inhibitory concentration (IC50) with OCI-LY10 cells lay in the range of 1000 to 10000 nM. Also, the DC50 on IRAK4 was less than 10 nM.

Turning to `COc1cc2nn([C@H]3CC[C@H](CN4CCC(c5cccn6c(N7CCC(=O)NC7=O)cnc56)CC4)CC3)cc2cc1NC(=O)c1cccc(C(F)(F)F)n1` [I-26], the IC50 in the assay on OCI-LY10 cells is less than 1000 nM. This compound came in with a half-maximal degradation concentration (DC50) on IRAK4 of 10 to 100 nM.

Consider `O=C1CCN(c2cncc3cc(C#CCOC4CCN(C[C@H]5CC[C@H](n6cc(NC(=O)c7cnn8ccc(N9C[C@H]%10C[C@@H]9CO%10)nc78)c(C(F)F)n6)CC5)CC4)ccc23)C(=O)N1` [I-16], for which the IC50 in the assay on OCI-LY10 cells was 1000 to 10000 nM. The compound also returned a 50% degradation concentration (DC50) at IRAK4 greater than 200 nM.

As to `CC(C)(O)c1cc2nn([C@H]3CC[C@H](CNCCOCCOCC#Cc4ccn5c(N6CCC(=O)NC6=O)cnc5c4)CC3)cc2cc1NC(=O)c1cccc(C(F)(F)F)n1` [I-34], in the assay on OCI-LY10 cells, the IC50 is greater than 10000 nM. Further, the 50% degradation concentration (DC50) at IRAK4 fell in the range of 10 to 100 nM.

In the case of `CN(C[C@H]1CC[C@H](n2cc3cc(NC(=O)c4cccc(C(F)(F)F)n4)c(C(C)(C)O)cc3n2)CC1)C1CCN(c2cccn3c(N4CCC(=O)NC4=O)cnc23)CC1` [I-4], the IC50 with OCI-LY10 cells lay in the range of 1000 to 10000 nM. At IRAK4, the DC50 is less than 10 nM.

Turning to `CC(C)(O)c1cc2nn([C@H]3CC[C@H](CC4CCN(c5ccn6c(N7CCC(=O)NC7=O)cnc6c5)CC4)CC3)cc2cc1NC(=O)c1cccc(C(F)(F)F)n1` [I-2], the half-maximal inhibitory concentration (IC50) in the assay with OCI-LY10 cells fell in the range of 1000 to 10000 nM. Further, the 50% degradation concentration (DC50) on IRAK4 is less than 10 nM.

Consider `O=C1CCN(c2cnc3c(C#CCOC4CCN(C[C@H]5CC[C@H](n6cc(NC(=O)c7cnn8ccc(N9C[C@H]%10C[C@@H]9CO%10)nc78)c(C(F)F)n6)CC5)CC4)cccn23)C(=O)N1` [I-24], for which the IC50 in the assay on OCI-LY10 cells was in the range of 1000 to 10000 nM. Also, the DC50 at IRAK4 was less than 10 nM.

Consider `COc1cc2nn([C@H]3CC[C@H](CN(C)C4CCN(c5ccn6c(N7CCC(=O)NC7=O)cnc6c5)CC4)CC3)cc2cc1NC(=O)c1cccc(C(F)(F)F)n1` [I-31], for which the IC50 in the assay on OCI-LY10 cells was less than 1000 nM. Also, the DC50 on IRAK4 was less than 10 nM.

`CN(C[C@H]1CC[C@H](n2cc3cc(NC(=O)c4cccc(C(F)(F)F)n4)c(C(C)(C)O)cc3n2)CC1)C1CCN(c2ccn3c(N4CCC(=O)NC4=O)cnc3c2)CC1` [I-1]: the half-inhibitory concentration (IC50) in the assay with OCI-LY10 cells lay in the range of 1000 to 10000 nM. At IRAK4, the DC50 is less than 10 nM.
